Measured values: BindingDB's records for patent US20250059174 (Enanta Pharmaceuticals, 2025)

Each compound was assayed against Mast/stem cell growth factor receptor Kit (Homo sapiens, UniProt P10721) (assay: c-KIT Kinase Assay).
Mast/stem cell growth factor receptor Kit, sequence (P10721 whole entry): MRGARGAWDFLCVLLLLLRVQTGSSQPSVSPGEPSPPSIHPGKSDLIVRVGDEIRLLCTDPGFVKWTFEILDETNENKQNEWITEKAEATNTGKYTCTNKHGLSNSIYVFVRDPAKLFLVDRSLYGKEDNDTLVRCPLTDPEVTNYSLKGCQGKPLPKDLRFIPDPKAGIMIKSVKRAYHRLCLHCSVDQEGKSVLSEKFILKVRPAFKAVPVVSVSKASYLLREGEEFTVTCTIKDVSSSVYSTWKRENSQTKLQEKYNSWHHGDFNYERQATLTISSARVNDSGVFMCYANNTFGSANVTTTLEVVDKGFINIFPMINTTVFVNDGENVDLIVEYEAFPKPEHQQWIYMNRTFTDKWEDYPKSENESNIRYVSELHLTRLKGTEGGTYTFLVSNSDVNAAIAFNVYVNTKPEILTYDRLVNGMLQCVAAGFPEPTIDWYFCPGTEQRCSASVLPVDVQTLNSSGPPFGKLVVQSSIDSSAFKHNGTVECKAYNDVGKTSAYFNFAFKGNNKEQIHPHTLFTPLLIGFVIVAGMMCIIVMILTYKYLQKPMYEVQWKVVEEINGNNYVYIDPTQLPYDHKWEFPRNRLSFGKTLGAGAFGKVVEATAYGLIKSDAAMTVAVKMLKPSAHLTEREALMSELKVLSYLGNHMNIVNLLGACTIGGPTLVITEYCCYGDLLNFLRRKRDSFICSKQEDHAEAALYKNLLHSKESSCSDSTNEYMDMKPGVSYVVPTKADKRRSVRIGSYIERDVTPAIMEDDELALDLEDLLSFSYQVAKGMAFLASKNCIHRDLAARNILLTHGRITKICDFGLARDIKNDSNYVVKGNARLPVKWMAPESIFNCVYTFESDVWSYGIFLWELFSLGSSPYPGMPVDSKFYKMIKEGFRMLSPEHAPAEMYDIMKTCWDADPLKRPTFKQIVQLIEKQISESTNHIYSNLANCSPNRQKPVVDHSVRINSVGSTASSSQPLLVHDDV
Procedure: Kinase Reaction: The kinase assay was based on the recommended protocol by c-KIT Kinase Enzyme System from Promega. Recombinant human c-KIT kinase in 3 μL of assay buffer (40 mM Tris pH 7.5, 20 mM MgCl2, 0.1 mg/mL BSA and 50 μM DTT) was added to the test or high control wells and 3 μL of assay buffer was added to the low control wells. The microplate was centrifuged at 800 rotations per minute (rpm) for 60 s and incubated at room temperature (RT) for 30 min. Next, 2 μL of buffered ATP and polyEY substrate solution was added to all wells. The microplate was centrifuged at 800 rpm for 60 s and incubated at RT for 2 h. […] ADP detection with ADP-Glo™ Kinase Assay: After the kinase reaction incubation, 5 μL of ADP-Glo™ reagent was added to all wells. The microplate was centrifuged at 800 rpm for 60 s and incubated at RT for 40 min. Ten microliter (10 μL) of Kinase Detection Reagent (Luciferin-Luciferase system) was then added to all wells. The microplate was centrifuged at 800 rpm for 60 s and incubated at RT for 60 min. Kinase activity was measured as increase in luminescence at RT in an Envision plate reader equipped with 560 nm filters and operating in endpoint mode.
Cc1ccc(-c2noc(C3C[C@@H]3F)n2)cc1NC(=O)c1cnn2ccc(N3C[C@H](CS(C)(=O)=O)[C@@H]3C)cc12 (stereo partly drawn) [US20250059174, Example 172] was tested, and the IC50 was less than 100 nM. Cc1ccc(-c2noc(C3C[C@@H]3F)n2)cc1NC(=O)c1cnn2ccc(-c3cnn(C(F)F)c3)cc12 (stereo partly drawn) [US20250059174, Example 2a] was tested, and the IC50 was less than 100 nM. Compound Cc1ccc(-c2noc([C@H]3C[C@@H]3F)n2)cc1NC(=O)c1cnc(N2CC(C(=O)O)C2)s1 [US20250059174, Example 98-4] has an IC50 greater than 1000 nM.
